In patent US10011568B2, “Cyclohexyl pyridine derivative” (priority 2014, dated 2018):

Columns and labels:
NK1 receptor = NK1 receptor (Meriones unguiculatus (Mongolian jird) (Gerbillus unguiculatus), UniProt Q5DUB1); assay: Effect on foot-tapping induced by NK1 receptor agonist GR73632; assay type: in vivo; conditions: male gerbil, 0.1 mg/kg iv, GR73632 after four hours
Method: (1) Effect on Foot-Tapping
The test compound solution was prepared by dissolving the test compound in a vehicle (a mixture of 50% N,N-dimethylacetamide (Wako Pure Chemical Industries), 30% propylene glycol (Wako Pure Chemical Industries). 4% 2-hydroxypropyl-β-cyclodextrin (Wako Pure Chemical Industries) and 16% distilled water).
A male gerbil (Japan SLC) was anesthetized with isoflurane, and 0.1 mg/kg of a test compound was administered from the jugular vein. After four hours. GR73632 (5 pmol/5 μl saline), which is an NK1 receptor agonist, was administered into the cerebral ventricle at the part 1 mm lateral to and 4.5 mm below the bregma in the head, under anesthesia with isoflurane. After the administration, the gerbil was moved to an observation cage, and the foot-tapping period during 30 minutes after the recovery of the righting reflex was measured. The foot-tapping inhibition rate (%) of each test compound was calculated by the following equation. Foot-tapping inhibition rate (%)−{1−(Fool-tapping period when test compound was administered)/(Foot-tapping period when solvent was administered)}×100 (2) Measurement of Drug Concentrations
In the table, Ex. No. means the Example number. Inhibition (%) is the loot-tapping inhibition rate, and Cone. (nM) is the drug concentration in the brain.

human NK1 receptor = human NK1 receptor (Homo sapiens (Human), UniProt P25103); assay: Affinity for human NK1 receptor (125I-substance P receptor binding test, membrane fraction); conditions: membrane fraction of human NK1 receptor-expressing 293T cells; read-out: IC50 (nM), concentration required for 50% inhibition of 125I-substance P binding
Chain of human NK1 receptor (P25103 whole entry): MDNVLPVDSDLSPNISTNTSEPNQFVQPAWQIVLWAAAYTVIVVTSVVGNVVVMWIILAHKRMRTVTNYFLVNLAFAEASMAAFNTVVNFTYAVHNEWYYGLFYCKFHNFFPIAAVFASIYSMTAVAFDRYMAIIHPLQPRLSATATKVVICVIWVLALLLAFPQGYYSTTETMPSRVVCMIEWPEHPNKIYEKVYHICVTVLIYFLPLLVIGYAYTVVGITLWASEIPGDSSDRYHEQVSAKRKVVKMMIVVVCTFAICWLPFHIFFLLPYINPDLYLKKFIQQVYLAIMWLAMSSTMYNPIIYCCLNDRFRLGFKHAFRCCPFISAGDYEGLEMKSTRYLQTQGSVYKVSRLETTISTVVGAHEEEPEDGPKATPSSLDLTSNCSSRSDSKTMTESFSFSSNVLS
Method: Affinity for Human NK1 Receptor
(3) Measurement of Binding Affinity to Human NK1 Receptor
(3-1) Preparation of Membrane Fraction from Human NK1 Receptor-Expressing Cells
Human NK1 receptor-expressing cells were prepared in a 175 cm^2 culture flask (Nippon Becton Dickinson). The formation of a complex of the human NK1 receptor expression plasmid and Lipofectamine 2000 was performed by calculating the culture area ratio and increasing the scale of the method described in the above 2-4 by the ratio. The human NK1 receptor-expressing cells were collected in a buffer solution for the membrane fraction preparation (50 mM Tris (Wako Pure Chemical), 120 mM sodium chloride (Wako Pure Chemical Industries), 5 mM potassium chloride (Wako Pure Chemical Industries), 1 mM ethylenediaminetetraacetic acid (Sigma), 0.002 mg/mL chymostatin (Peptide Institute), 0.04 mg/bacitracin (Wako Pure Chemical Industries), 0.005 mg/mL phosphoramidon (Peptide Institute) and 0.5 mM phenylmethylsulfonyl fluoride (Wako Pure Chemical Industries), pH7.4) and centrifuged at 1,880 g for 10 minutes, and the cell sediment was suspended in the buffer solution for the membrane fraction preparation. After freezing and thawing the cells once, the cells were homogenized using a Dounce-type homogenizer (cooled on ice, 1000 rpm, 20 times) The homogenized cell suspension was centrifuged at 20,000 rpm for 10 minutes, and the supernatant was removed to obtain cell sediment. The cell sediment was suspended again in the buffer solution for the membrane fraction preparation and homogenized using a Dounce-type homogenizer (cooled on ice, 1000 rpm, 30 times). The cell suspension was centrifuged at 20,000 rpm for 10 minutes, and the supernatant was removed to obtain cell sediment. The same homogenization and centrifugation were repeated again, and final cell sediment was obtained. The final cell sediment was suspended in a buffer solution for the receptor binding test (50 mM Tris (Wako Pure Chemical Industries). 3 mM manganese chloride (Wako Pure Chemical Industries), 0.002 mg/mL chymostatin (Peptide Institute), 0.04 mg/bacitracin (Wako Pure Chemical Industries) and 0.02% bovine serum albumin (Sigma), pH 7.4), and the protein concentration was measured using BCA Protein Assay Kit (Pierce).
(3-2) Receptor Binding Test
The buffer solution for the receptor binding test was dispensed to the wells of a 96-well assay plate (Greiner) at 22.5 μL/well. DMSO solutions of a test compound, which were prepared at an 80-time higher concentration using 100% dimethyl sulfoxide (DMSO), were added to the wells at 2.5 μL/well (final concentrations of 1 nM to 100 nM), and the solutions were mixed. As a radiolabeled ligand, ^125I-substance P (Substance P, [^125I]Tyr^8-, Perkin Elmer) was used. ^125I-substance P was diluted with the buffer solution for the receptor binding test to a concentration resulting in 125 pmol/25 μL/well and added to the 96-well assay plate, and the solutions were mixed. The membrane fraction prepared from the human NK1 receptor-expressing cells was diluted with the buffer solution for the receptor binding test to a concentration resulting in 8 to 10 μg/well, suspended until the suspension became in such a homogenous state that the suspension could flow through a 27G injection needle smoothly and then added to the 96-well assay plate at 150 μL/well. Then, the plate was incubated at room temperature for 60 minutes while shaking the plate. The reaction solutions were suction-filtered through a multiscreen 96-well filter plate (Millipore) which had been pre-treated with 0.3% polyethyleneimine, and the reaction was terminated by washing with a washing solution (50 mM Tris and 0.02% bovine serum albumin, pH 7.4) four times. The bottom of the microplate was dried at 60° C., and then 100 μL/well of MicroScint 20 (PerkinElmer) was dispensed to the wells. The top of the plate was sealed with TopSeal A (PerkinElmer), and the plate was shaken for 5 to 10 minutes. […]

hERG channel = hERG channel (Homo sapiens (Human), UniProt Q12809); assay: Evaluation of hERG current (whole-cell patch clamp); assay type: cell-based; conditions: 10 μM, application for 10 minutes, HEK293 cells, n = 3, average ± standard error
Chain of hERG channel (Q12809 whole entry): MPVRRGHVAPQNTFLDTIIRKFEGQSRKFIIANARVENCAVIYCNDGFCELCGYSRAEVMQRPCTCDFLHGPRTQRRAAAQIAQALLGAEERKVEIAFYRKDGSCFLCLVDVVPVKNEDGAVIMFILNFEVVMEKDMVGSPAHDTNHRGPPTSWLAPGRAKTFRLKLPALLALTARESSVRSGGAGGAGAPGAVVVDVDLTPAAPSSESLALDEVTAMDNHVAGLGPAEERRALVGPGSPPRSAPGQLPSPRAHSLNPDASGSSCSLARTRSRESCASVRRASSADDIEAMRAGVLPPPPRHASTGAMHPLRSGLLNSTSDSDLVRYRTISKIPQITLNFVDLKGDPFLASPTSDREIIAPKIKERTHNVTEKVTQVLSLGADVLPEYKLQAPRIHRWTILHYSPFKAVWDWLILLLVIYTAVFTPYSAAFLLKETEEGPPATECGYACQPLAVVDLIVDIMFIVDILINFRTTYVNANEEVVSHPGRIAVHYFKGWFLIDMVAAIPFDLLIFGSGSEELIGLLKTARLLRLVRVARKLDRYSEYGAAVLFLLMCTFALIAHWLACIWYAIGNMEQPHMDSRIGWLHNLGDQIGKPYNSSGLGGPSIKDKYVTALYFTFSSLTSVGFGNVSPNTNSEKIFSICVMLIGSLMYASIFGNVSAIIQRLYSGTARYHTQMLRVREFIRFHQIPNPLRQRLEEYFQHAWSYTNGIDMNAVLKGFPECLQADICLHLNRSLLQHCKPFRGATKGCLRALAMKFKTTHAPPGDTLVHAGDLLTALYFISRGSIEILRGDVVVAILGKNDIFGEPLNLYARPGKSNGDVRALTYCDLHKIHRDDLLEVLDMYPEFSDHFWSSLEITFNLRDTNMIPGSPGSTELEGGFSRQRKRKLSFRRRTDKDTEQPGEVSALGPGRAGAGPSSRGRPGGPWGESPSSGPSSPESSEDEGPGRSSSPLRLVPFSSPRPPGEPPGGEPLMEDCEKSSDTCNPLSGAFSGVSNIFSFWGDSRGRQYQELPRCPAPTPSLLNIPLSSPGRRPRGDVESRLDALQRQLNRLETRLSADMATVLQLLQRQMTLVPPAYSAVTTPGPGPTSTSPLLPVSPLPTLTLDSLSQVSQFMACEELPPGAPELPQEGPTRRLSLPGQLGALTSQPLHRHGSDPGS
Method: Evaluation of hERG Current
A dimethyl sulfoxide (DMSO) solution of the test compound with a concentration 1000 times higher than the evaluation concentration (10 μM) was prepared, and a solution with a final application concentration was prepared by diluting the solution. The hERG current was measured by a whole-cell method using a patch clamp system, where a cover glass on which hERG channel-expressing human embryonic kidney (HEK) 293 cells were seeded was placed on a perfusion bath and a perfusion solution was caused to flow. The change in the hERG channel-derived current caused by a pulse protocol (holding potential of −80 mV, depolarization pulse of +20 mV for 1.9 seconds, repolarization pulse of −50 mV for 2 seconds, stimulated at intervals of 15 seconds) of data acquisition/analysis software, pCLAMP9 (Axon instruments. Inc.) was measured. The measurement conditions were a flow rate of about 1.5 mL/min and a temperature of about 33° C. Two wave forms immediately before applying the test compound and two wave forms immediately after the application for 10 minutes were analyzed, and the statistical analysis was performed. The value before the application of the test compound was regarded as 100%, and the change rate based on the value was determined.
In the table, Ex. No. means the Example number, and the change rate is the average±the standard error.

Chain of NK1 receptor (Q5DUB1 whole entry): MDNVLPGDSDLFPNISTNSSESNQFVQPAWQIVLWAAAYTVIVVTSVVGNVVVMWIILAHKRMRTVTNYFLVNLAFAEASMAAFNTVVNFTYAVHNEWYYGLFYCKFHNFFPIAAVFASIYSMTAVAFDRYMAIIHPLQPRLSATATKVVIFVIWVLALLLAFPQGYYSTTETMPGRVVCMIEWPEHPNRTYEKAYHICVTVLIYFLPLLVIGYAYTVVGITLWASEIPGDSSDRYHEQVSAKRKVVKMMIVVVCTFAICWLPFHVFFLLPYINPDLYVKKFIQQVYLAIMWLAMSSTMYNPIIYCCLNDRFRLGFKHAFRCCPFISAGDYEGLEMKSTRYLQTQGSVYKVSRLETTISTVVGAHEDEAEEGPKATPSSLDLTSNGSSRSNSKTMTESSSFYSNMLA

Row | Inhibition (%), foot-tapping inhibition rate (NK1 receptor) | IC50 (human NK1 receptor) | SMILES | hERG current change rate % (value before application = 100%) (hERG channel)
1 | 98% | 1.45 nM | Cc1cc(F)ccc1-c1cc(C2CCC(C(=O)O)CC2)ncc1N(C)C(=O)C(C)(C)c1cc(C(F)(F)F)cc(C(F)(F)F)c1 (stereo not shown) [Example 1, 4-[5-{[2-(3,5-Bistrifluoromethylphenyl)-2-methylpropionyl]methylamino}-4-(4-fluoro-2-methylphenyl)pyridin-2-yl]cyclohexanecarboxylic Acid] | –
2 | 100% | 2.1 nM | Cc1cc(F)ccc1-c1cc(C2CCCC(CC(=O)O)C2)ncc1N(C)C(=O)C(C)(C)c1cc(C(F)(F)F)cc(C(F)(F)F)c1 (stereo not shown) [Example 3, {3-[5-{[2-(3,5-Bistrifluoromethylphenyl)-2-methylpropionyl]methylamino}-4-(4-fluoro-2-methylphenyl)pyridin-2-yl]cyclohexyl}acetic Acid] | –
3 | 77% | 2.35 nM | Cc1cc(F)ccc1-c1cc(C2(C)CCCC(CC(=O)O)C2)ncc1N(C)C(=O)C(C)(C)c1cc(C(F)(F)F)cc(C(F)(F)F)c1 (stereo not shown) [Example 4, {3-[5-{[2-(3,5-Bistrifluoromethylphenyl)-2-methylpropionyl]methylamino}-4-(4-fluoro-2-methylphenyl)pyridin-2-yl]-3-methylcyclohexyl}acetic Acid] | –
4 | 90% | 1.63 nM | Cc1cc(F)ccc1-c1cc(C2CCC3(CC2)CC3C(=O)O)ncc1N(C)C(=O)C(C)(C)c1cc(C(F)(F)F)cc(C(F)(F)F)c1 (stereo not shown) [Example 7, 6-[5-{[2-(3,5-Bistrifluoromethylphenyl)-2-methylpropionyl]methylamino}-4-(4-fluoro-2-methylphenyl)pyridin-2-yl]spiro[2.5]octane-1-carboxylic Acid] | –
5 | 95% | 6.75 nM | Cc1cc(F)ccc1-c1cc([C@H]2CC[C@H](C(C)(C)C(=O)O)CC2)ncc1N(C)C(=O)C(C)(C)c1cc(C(F)(F)F)cc(C(F)(F)F)c1 [Example 11, trans-2-{4-[5-{[2-(3,5-Bistrifluoromethylphenyl)-2-methylpropionyl]methylamino}-4-(4-fluoro-2-methylphenyl)pyridin-2-yl]cyclohexyl}-2-methylpropionic Acid] | –
6 | 100% | 1.62 nM | Cc1cc(F)ccc1-c1cc([C@H]2CC[C@H](CC(=O)O)CC2)ncc1N(C)C(=O)C(C)(C)c1cc(C(F)(F)F)cc(C(F)(F)F)c1 [Example 13, trans-{4-[5-{[2-(3,5-Bistrifluoromethylphenyl)-2-methylpropionyl]methylamino}-4-(4-fluoro-2-methylphenyl)pyridin-2-yl]cyclohexyl}acetic acid] | 81.1 ± 5.6%
7 | 99% | 2.21 nM | Cc1cc(F)ccc1-c1cc([C@H]2CC[C@@H](CC(=O)O)CC2)ncc1N(C)C(=O)C(C)(C)c1cc(C(F)(F)F)cc(C(F)(F)F)c1 [Example 14, cis-{4-[5-{[2-(3,5-bistrifluoromethylphenyl)-2-methylpropionyl]methylamino}-4-(4-fluoro-2-methylphenyl)pyridin-2-yl]cyclohexyl}acetic acid] | 80.3 ± 3.9%

Continued, compound first:

Row | SMILES | Inhibition (%), foot-tapping inhibition rate (NK1 receptor) | IC50 (human NK1 receptor) | hERG current change rate % (value before application = 100%) (hERG channel)
8 | Cc1cc(F)ccc1-c1cc(C2CCC(CC(=O)O)CC2)nc(C#N)c1N(C)C(=O)C(C)(C)c1cc(C(F)(F)F)cc(C(F)(F)F)c1 (stereo not shown) [Example 8, {4-[5-{[2-(3,5-Bistrifluoromethylphenyl)-2-methylpropionyl]methylamino}-6-cyano-4-(4-fluoro-2-methylphenyl)pyridin-2-yl]cyclohexyl}acetic Acid] | 100% | 4.01 nM | –
9 | Cc1ccccc1-c1cc(C2CCC(CC(=O)O)CC2)ncc1N(C)C(=O)C(C)(C)c1cc(C(F)(F)F)cc(C(F)(F)F)c1 (stereo not shown) [Example 9, {4-[5-{[2-(3,5-Bistrifluoromethylphenyl)-2-methylpropionyl]methylamino}-4-ortho-tolylpyridine-yl]-cyclohexyl}acetic Acid] | 75% | 2.35 nM | –
10 | Cc1cc(F)ccc1-c1cc(C2CCC(C(C)C(=O)O)CC2)ncc1N(C)C(=O)C(C)(C)c1cc(C(F)(F)F)cc(C(F)(F)F)c1 (stereo not shown) [Example 10, 2-{4-[5-{[2-(3,5-Bistrifluoromethylphenyl)-2-methylpropionyl]methylamino}-4-(4-fluoro-2-methylphenyl)pyridin-2-yl]cyclohexyl}propionic Acid] | 97% | 2.79 nM | –
11 | Cc1ccccc1-c1cc(C2CCC(CC(=O)O)CC2)nc(C#N)c1N(C)C(=O)C(C)(C)c1cc(C(F)(F)F)cc(C(F)(F)F)c1 (stereo not shown) [Example 16, [4-(5-{[2-(3,5-Bistrifluoromethylphenyl)-2-methylpropionyl]methylamino}-6-cyano-4-ortho-tolylpyridin-2-yl)cyclohexyl]acetic Acid] | 93% | 2.78 nM | –
12 | Cc1cc(F)ccc1-c1cc([C@H]2CC[C@H](CC(=O)O)CC2)nc(C#N)c1N(C)C(=O)C(C)(C)c1cc(C(F)(F)F)cc(C(F)(F)F)c1 [Example 20, trans-{4-[5-{[2-(3,5-Bistrifluoromethylphenyl)-2-methylpropionyl]methylamino}-6-cyano--4-(4-fluoro-2-methylphenyl)-pyridin-2-yl]cyclohexyl}acetic acid] | 100% | 3.27 nM | –
13 | Cc1cc(F)ccc1-c1cc([C@H]2CC[C@@H](CC(=O)O)CC2)nc(C#N)c1N(C)C(=O)C(C)(C)c1cc(C(F)(F)F)cc(C(F)(F)F)c1 [Example 21, cis-{4-[5-{[2-(3,5-bistrifluoromethylphenyl)-2-methylpropionyl]methylamino}-6-cyano-4-(4-fluoro-2-methylphenyl)pyridin-2-yl]cyclohexyl}acetic acid] | 100% | 2.36 nM | –
